# Patent publication US20130197085A1, “AGENT AND METHOD FOR STABILIZING MEMBRANE PROTEIN” (priority 2007, published 2013)
# Legend:
# D482G BSEP = target: T1, D482G BSEP (Homo sapiens, UniProt O95342, D482G/L339V); assay: Treatment with actinomycin D and cycloheximide, upregulation of mature BSEP by 4PBA in MDCKII cells; assay type: cell-based; conditions: 1 mM 4PBA, 6 hours
# T1 construct: expressed in transfected cells; host or cells: MDCKII cells infected with recombinant adenovirus
# Method: (§1) MDCKII cells were dispersed on a 6-well plate, resulting in a density of 2.5×10^5 cells/well. After completion of the culture for 24 hours, the confluent cells were infected with recombinant adenoviruses having the cDNAs of wild-type, E297G and D482G BSEPs, and GFP, at 200 MOI. After completion of the infection, the cells were cultured for 36 hours. Thereafter, in order to inhibit mRNA synthesis, the cells were treated in the presence or absence of 5 μg/ml actinomycin D (Sigma). Otherwise, in order to inhibit protein synthesis, the cells were treated in the presence or absence of 20 μg/ml cycloheximide (Sigma). After completion of the treatment for 2 hours, in the presence or absence of actinomycin D or in the presence or absence of cycloheximide, 4PBA was added to the cells to a concentration of 1 mM. At the time point of 6 hours (E297G and D482G BSEPs) or 8 hours (wild-type BSEP) after the 4PBA treatment, a crude membrane fraction was prepared. The obtained fraction was separated by 6% SDS-PAGE, and Western blotting was then carried out.
# E297G BSEP = target: T2, E297G BSEP (Homo sapiens, UniProt O95342, E297G/L339V); assay: as above; assay type: cell-based; conditions: 1 mM 4PBA, 6 hours
# T2 construct: expressed in transfected cells; host or cells: MDCKII cells infected with recombinant adenovirus
# T2 sequence (O95342 whole entry E297G/L339V): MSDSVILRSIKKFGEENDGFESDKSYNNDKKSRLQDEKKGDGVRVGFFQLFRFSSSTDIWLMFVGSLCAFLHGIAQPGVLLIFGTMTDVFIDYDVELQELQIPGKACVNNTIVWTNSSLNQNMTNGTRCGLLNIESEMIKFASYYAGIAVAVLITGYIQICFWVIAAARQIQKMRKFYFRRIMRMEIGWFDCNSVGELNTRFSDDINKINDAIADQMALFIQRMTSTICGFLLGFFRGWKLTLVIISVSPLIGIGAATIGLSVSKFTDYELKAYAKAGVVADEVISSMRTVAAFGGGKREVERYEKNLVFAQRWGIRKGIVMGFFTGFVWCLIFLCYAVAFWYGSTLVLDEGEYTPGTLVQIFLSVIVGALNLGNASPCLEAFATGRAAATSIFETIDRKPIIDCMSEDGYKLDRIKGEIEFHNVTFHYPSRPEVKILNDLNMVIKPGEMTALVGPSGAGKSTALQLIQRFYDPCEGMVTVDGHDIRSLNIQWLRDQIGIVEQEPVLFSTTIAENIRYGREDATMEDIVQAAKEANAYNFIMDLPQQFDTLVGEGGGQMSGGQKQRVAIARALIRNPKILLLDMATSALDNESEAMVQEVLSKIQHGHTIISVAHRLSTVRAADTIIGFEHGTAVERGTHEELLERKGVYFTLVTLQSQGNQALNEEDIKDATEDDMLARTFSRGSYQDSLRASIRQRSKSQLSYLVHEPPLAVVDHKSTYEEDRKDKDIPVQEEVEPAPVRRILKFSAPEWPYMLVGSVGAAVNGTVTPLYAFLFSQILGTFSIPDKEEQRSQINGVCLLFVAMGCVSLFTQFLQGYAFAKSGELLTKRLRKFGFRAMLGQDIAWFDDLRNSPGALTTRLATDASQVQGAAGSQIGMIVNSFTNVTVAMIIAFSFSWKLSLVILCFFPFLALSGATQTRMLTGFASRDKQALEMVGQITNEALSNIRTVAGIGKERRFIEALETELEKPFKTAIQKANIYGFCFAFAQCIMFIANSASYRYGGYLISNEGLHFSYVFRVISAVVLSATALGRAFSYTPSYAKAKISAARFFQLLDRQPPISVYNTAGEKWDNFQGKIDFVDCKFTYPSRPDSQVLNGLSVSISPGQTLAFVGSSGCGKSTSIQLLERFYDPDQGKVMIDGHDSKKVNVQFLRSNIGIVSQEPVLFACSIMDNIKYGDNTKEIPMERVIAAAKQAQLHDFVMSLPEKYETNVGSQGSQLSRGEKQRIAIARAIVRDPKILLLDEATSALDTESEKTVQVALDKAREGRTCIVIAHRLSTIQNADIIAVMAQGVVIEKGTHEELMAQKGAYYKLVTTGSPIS
# Method: as §1
# wild-type BSEP = target: T3, wild-type BSEP (Homo sapiens, UniProt O95342, L339V); assay: as above; assay type: cell-based; conditions: 1 mM 4PBA, 8 hours
# T3 construct: expressed in transfected cells; host or cells: MDCKII cells infected with recombinant adenovirus
# T3 sequence (O95342 whole entry L339V): as the sequence (O95342 whole entry E297G/L339V) above, with G297E counted along it
# Method: as §1
# [1] = system: intrinsic dipeptidyl peptidase IV (DPPIV); assay: Decomposition rate of cell surface-expressed protein (biotin-labeling) in MDCKII cells; assay type: cell-based; conditions: 1 mM 4PBA
# Method: MDCKII cells were dispersed on a 6-well plate, resulting in a density of 2.5×10^5 cells/well. After completion of the culture for 24 hours, the confluent cells were infected with recombinant adenoviruses having the cDNAs of wild-type, E297G and D482G BSEPs, and GFP, at 200 MOI. After completion of the infection, the cells were cultured for 24 hours. […] After completion of the treatment for 24 hours, the cells were biotinylated (see Hayashi et al., Hepatology, 41: 916-924, 2005).
# The remaining biotinylated protein was isolated, and it was then subjected to 6% SDS-PAGE, followed by Western blotting.
# BSEP = target: T4, BSEP (Rattus norvegicus, UniProt O70127); assay: Western blotting of canalicular membrane vesicles (CMVs) from treated rats; assay type: in vivo, SD rat; conditions: CMVs from SD rats treated at 0.6 g/kg/day for 10 days
# T4 construct: from tissue; host or cells: liver of male SD rats: in vivo for A27, canalicular membrane vesicles for A28 and A29
# T4 sequence (O70127 1-1321): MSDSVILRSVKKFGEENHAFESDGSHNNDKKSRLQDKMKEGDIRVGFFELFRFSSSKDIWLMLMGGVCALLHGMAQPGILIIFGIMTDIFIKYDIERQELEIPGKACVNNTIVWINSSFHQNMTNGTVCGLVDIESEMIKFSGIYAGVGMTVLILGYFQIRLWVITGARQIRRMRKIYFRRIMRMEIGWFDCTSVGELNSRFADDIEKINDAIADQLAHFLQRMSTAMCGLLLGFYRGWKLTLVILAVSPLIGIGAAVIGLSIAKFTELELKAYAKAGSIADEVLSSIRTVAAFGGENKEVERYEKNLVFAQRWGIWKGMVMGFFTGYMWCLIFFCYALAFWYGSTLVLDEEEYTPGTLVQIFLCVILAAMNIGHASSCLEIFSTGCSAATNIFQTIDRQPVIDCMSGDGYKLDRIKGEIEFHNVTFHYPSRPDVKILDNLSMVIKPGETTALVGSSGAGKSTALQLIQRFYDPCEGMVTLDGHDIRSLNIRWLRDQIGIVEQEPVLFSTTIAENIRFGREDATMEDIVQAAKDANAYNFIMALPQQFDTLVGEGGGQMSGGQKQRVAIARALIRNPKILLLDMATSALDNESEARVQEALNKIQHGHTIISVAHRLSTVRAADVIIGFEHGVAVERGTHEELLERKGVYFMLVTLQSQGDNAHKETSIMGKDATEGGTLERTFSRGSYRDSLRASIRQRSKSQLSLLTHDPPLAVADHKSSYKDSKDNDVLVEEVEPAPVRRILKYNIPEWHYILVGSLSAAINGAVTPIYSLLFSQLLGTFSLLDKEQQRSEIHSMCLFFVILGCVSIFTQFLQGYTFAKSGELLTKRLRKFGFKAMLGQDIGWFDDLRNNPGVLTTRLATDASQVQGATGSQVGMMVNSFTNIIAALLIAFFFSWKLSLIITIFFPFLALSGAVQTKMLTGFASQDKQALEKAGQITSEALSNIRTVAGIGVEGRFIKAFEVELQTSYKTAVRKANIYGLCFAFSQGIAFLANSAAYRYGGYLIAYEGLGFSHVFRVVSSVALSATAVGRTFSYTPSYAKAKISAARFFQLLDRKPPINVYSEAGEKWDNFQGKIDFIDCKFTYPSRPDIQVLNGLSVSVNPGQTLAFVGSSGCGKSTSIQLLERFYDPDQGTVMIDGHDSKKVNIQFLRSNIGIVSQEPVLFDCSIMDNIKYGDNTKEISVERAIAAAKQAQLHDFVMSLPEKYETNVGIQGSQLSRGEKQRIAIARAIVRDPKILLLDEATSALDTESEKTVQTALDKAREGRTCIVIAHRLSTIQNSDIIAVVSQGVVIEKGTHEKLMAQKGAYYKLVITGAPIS
# Method: (§2) […] 4PBA or a vehicle was given to a male SD rat (6- to 7-week-old) for 10 days, divided over 3 administrations. Canalicular membrane vesicles were prepared from the liver of the rat (Akita et al., Biochim Biophys Acta, 1511: 7-16, 2001), and they were then used in Western blotting and a transport assay. Such transport assay was carried out by a rapid filtration method (Hayashi et al., Biochim Biophys Acta, 1738: 54-62, 2005).
# DPPIV = assay: as above; assay type: in vivo, SD rat; conditions: CMVs from SD rats treated at 0.6 g/kg/day for 10 days
# Method: as §2
# P-gp = assay: as above; assay type: in vivo, SD rat; conditions: CMVs from SD rats treated at 0.6 g/kg/day for 10 days
# Method: as §2
# T1 sequence (O95342 whole entry L339V/D482G): as the sequence (O95342 whole entry E297G/L339V) above, with G297E, D482G counted along it
structure (smiles),measurement,setting,value
"O=C(O)CCCc1ccccc1 [4PBA, 4-phenylbutyric acid]",effect of transcription inhibition by actinomycin D on the increase in expression of mature BSEP due to 4PBA,D482G BSEP; actinomycin D 5 μg/ml,did not affect
same,effect of translation inhibition by cycloheximide on the increase in expression of mature BSEP due to 4PBA,D482G BSEP; cycloheximide 20 μg/ml,did not affect
same,effect of transcription inhibition by actinomycin D on the increase in expression of mature BSEP due to 4PBA,E297G BSEP; actinomycin D 5 μg/ml,did not affect
same,effect of translation inhibition by cycloheximide on the increase in expression of mature BSEP due to 4PBA,E297G BSEP; cycloheximide 20 μg/ml,did not affect
same,effect of transcription inhibition by actinomycin D on the increase in expression of mature BSEP due to 4PBA,wild-type BSEP; actinomycin D 5 μg/ml,did not affect
same,effect of translation inhibition by cycloheximide on the increase in expression of mature BSEP due to 4PBA,wild-type BSEP; cycloheximide 20 μg/ml,did not affect
same,decomposition of intrinsic DPPIV on the cell surface,[1],not influenced
same,"expression level of BSEP in CMVs, increase",BSEP,3.2 times
same,expression level of DPPIV in CMVs,DPPIV,not changed
same,expression level of P-gp in CMVs,P-gp,not changed
